Measured values as given in ChEMBL document CHEMBL5291721, “A preclinical secondary pharmacology resource illuminates target-adverse drug reaction associations of marketed drugs” (Nat Commun, 2023).

Key:
[1] = biological target: T1, Alpha-2C adrenergic receptor (Homo sapiens, UniProt P18825); format: functional
T1 sequence (P18825 whole entry): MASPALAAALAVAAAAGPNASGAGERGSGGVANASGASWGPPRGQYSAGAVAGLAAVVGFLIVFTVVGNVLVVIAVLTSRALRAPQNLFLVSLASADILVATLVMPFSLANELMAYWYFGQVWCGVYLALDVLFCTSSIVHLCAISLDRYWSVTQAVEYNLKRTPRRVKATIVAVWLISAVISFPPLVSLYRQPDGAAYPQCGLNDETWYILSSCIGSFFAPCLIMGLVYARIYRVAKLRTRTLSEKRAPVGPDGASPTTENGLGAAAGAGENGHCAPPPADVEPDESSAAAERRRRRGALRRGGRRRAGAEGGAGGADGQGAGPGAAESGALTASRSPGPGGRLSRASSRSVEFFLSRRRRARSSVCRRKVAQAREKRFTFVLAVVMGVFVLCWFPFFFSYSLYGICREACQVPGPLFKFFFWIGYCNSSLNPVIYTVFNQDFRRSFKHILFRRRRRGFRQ

[2] = biological target: T2, Amine oxidase [flavin-containing] A (Homo sapiens, UniProt P21397); format: functional
T2 sequence (P21397 whole entry): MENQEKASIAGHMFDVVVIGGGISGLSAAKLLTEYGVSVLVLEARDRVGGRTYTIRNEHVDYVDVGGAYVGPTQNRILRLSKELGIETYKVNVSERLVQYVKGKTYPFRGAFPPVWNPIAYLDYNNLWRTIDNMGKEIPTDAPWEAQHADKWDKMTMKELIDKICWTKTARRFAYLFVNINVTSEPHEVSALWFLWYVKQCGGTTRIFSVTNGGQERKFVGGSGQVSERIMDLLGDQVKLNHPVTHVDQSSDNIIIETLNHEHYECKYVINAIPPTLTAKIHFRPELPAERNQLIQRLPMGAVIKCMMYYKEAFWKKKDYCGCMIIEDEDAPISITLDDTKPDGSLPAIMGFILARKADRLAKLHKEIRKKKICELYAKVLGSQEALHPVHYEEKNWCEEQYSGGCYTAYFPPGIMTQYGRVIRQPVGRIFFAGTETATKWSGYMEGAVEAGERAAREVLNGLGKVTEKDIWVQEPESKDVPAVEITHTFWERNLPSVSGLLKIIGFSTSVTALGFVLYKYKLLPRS

Adenosine receptor A3 = biological target: T3, Adenosine receptor A3 (Homo sapiens, UniProt P0DMS8)
T3 sequence (P0DMS8 whole entry): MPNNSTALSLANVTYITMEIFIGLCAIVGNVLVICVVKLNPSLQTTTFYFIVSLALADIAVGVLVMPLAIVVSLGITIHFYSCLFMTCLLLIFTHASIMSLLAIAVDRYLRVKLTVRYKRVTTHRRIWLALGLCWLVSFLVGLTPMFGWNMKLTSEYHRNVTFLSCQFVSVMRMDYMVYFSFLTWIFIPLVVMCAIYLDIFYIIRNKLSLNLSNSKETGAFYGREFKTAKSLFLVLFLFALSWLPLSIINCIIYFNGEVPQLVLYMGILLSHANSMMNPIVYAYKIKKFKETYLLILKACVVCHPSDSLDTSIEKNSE

[3] = biological target: T4, Type-1 angiotensin II receptor (Homo sapiens, UniProt P30556)
T4 sequence (P30556 whole entry): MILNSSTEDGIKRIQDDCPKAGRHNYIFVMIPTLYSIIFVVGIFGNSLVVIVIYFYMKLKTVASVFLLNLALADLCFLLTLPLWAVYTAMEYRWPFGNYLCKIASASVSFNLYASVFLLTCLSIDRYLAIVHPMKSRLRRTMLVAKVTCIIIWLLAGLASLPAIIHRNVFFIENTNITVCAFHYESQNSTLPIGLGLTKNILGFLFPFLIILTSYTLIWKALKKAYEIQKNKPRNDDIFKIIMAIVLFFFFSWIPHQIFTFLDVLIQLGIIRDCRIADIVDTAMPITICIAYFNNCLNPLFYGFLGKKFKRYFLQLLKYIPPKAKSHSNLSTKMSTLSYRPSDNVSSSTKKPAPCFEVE

Adenosine receptor A1 = biological target: T5, Adenosine receptor A1 (Homo sapiens, UniProt P30542)
T5 sequence (P30542 whole entry): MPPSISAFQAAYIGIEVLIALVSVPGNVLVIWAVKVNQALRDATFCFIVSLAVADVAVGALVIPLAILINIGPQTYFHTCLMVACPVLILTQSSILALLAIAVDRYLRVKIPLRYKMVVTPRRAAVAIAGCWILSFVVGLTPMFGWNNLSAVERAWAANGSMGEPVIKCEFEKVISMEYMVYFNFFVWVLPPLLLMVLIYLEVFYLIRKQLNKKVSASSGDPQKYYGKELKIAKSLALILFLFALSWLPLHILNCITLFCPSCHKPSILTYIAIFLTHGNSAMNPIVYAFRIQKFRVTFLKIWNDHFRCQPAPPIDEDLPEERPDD

D(3) dopamine receptor = D(3) dopamine receptor (Homo sapiens, UniProt P35462)
[4] = biological target: cGMP-inhibited 3',5'-cyclic phosphodiesterase 3A (Homo sapiens, UniProt Q14432); format: functional
[5] = biological target: T6, 5-hydroxytryptamine receptor 2C (Homo sapiens, UniProt P28335)
T6 sequence (P28335 whole entry): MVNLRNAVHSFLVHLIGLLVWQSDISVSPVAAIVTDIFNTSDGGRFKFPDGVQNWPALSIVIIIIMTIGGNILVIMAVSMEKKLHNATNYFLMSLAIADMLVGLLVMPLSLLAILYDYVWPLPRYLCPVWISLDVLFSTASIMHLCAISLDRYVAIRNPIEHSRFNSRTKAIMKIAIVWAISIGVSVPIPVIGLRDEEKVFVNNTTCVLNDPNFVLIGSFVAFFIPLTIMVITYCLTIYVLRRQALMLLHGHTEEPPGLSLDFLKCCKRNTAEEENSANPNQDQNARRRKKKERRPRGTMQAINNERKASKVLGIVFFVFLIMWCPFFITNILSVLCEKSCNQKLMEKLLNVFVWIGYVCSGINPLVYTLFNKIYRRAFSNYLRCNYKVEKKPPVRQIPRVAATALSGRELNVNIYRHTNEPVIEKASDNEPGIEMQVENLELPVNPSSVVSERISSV
Note: assay procedure not described here.

D(3) dopamine receptor, sequence (P35462 whole entry): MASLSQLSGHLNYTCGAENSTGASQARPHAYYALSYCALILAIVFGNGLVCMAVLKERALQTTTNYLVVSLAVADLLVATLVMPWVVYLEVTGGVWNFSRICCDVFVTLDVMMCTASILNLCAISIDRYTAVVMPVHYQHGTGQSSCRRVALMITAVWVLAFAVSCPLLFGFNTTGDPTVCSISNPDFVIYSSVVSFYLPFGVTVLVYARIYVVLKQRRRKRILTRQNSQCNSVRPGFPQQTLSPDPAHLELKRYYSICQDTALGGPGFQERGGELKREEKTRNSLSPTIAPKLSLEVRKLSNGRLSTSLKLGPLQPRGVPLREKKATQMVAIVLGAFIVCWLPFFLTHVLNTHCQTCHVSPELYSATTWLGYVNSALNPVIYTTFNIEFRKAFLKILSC
cGMP-inhibited 3',5'-cyclic phosphodiesterase 3A, sequence (Q14432 whole entry): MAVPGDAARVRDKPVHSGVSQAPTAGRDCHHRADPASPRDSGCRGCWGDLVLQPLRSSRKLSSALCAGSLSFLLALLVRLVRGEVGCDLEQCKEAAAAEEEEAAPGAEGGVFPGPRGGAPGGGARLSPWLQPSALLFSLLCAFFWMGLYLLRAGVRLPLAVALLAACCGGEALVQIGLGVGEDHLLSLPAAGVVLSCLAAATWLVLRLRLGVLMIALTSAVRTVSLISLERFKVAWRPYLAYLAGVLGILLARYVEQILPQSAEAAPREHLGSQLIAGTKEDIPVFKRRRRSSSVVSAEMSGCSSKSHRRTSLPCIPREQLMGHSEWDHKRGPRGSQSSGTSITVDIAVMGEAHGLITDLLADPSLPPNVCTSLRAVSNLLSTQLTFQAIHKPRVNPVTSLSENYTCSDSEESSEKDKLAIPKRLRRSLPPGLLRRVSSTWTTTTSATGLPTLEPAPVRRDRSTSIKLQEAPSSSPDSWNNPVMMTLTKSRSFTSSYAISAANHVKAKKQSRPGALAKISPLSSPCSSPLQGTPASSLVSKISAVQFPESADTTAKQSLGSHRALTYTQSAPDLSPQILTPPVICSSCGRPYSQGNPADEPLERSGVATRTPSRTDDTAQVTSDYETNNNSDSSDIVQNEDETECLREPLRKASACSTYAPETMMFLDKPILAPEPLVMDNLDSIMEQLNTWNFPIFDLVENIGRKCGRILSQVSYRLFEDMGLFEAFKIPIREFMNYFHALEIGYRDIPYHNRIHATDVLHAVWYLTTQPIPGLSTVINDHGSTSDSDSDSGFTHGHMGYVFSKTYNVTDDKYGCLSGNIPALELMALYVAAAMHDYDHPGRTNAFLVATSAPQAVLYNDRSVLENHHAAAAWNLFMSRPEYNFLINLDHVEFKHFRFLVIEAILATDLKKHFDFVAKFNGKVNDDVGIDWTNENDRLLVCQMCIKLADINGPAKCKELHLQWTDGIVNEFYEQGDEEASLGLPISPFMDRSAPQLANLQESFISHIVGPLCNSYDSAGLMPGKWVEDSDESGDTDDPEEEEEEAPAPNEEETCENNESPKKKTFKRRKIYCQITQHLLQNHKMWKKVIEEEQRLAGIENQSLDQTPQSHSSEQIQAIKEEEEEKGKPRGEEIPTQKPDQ

SMILES	AC50 [1]	AC50 [2]	AC50 (Adenosine receptor A3)	AC50 [3]	AC50 (Adenosine receptor A1)	AC50 (D(3) dopamine receptor)	AC50 [4]	AC50 [5]
O=C(O)c1cc(-c2ccc(F)cc2F)ccc1O [DIFLUNISAL]	> 10 µM	> 10 µM	> 10 µM	> 10 µM	> 10 µM	> 30 µM	> 30 µM	> 30 µM
CN(CCOc1ccc(NS(C)(=O)=O)cc1)CCc1ccc(NS(C)(=O)=O)cc1 [DOFETILIDE]	> 10 µM	> 10 µM	> 30 µM	9.5 µM	> 30 µM	0.78 µM	> 30 µM	> 30 µM
COC(=O)[C@@H]1CC2=CC(=O)CC[C@]2(C)[C@@]23O[C@@H]2C[C@@]2(C)[C@@H](CC[C@@]24CCC(=O)O4)[C@H]13 [EPLERENONE]	> 30 µM	> 30 µM	> 30 µM	> 30 µM	> 30 µM	> 30 µM	> 30 µM	> 30 µM
C#C[C@]1(O)CC[C@H]2[C@@H]3CCc4cc(O)ccc4[C@H]3CC[C@@]21C [ETHINYL ESTRADIOL]	> 10 µM	> 10 µM	13.5 µM	> 30 µM	> 30 µM	> 10 µM	16 µM	> 30 µM
NC(N)=Nc1nc(CSCCC(N)=NS(N)(=O)=O)cs1 [FAMOTIDINE]	> 10 µM	8.1 µM	> 30 µM	> 30 µM	> 30 µM	> 10 µM	> 10 µM	> 10 µM
CC(C)C(=O)Nc1ccc([N+](=O)[O-])c(C(F)(F)F)c1 [FLUTAMIDE]	> 10 µM	> 30 µM	> 30 µM	> 10 µM	> 30 µM	> 30 µM	> 10 µM	> 30 µM
C[C@@H]1O[C@@H]1P(=O)(O)O [FOSFOMYCIN]	> 10 µM	> 10 µM	> 10 µM	> 10 µM	> 10 µM	> 30 µM	> 30 µM	> 30 µM
COc1ccc2c(c1)C(=O)N(CCc1ccc(S(=O)(=O)NC(=O)NC3CCCCC3)cc1)C(=O)C2(C)C [GLIQUIDONE]	> 30 µM	> 30 µM	> 30 µM	> 30 µM	> 30 µM	> 30 µM	5.3 µM	> 30 µM
NS(=O)(=O)c1cc2c(cc1Cl)NCNS2(=O)=O [HYDROCHLOROTHIAZIDE]	> 10 µM	> 10 µM	> 30 µM	> 30 µM	> 30 µM	> 10 µM	> 30 µM	> 10 µM
CC(C)Cc1ccc(CC(=O)O)cc1 [IBUFENAC]	> 30 µM	> 30 µM	> 30 µM	> 30 µM	> 30 µM	> 30 µM	> 30 µM	> 30 µM
NC[C@H]1O[C@H](O[C@H]2[C@H](O)[C@@H](O[C@H]3O[C@H](CO)[C@@H](O)[C@H](N)[C@H]3O)[C@H](N)C[C@@H]2N)[C@H](O)[C@@H](O)[C@@H]1O [KANAMYCIN]	> 30 µM	> 30 µM	> 10 µM	> 10 µM	> 10 µM	> 30 µM	> 30 µM	> 30 µM
CN1C(=O)CC(C)(c2ccccc2)C1=O (centres undefined) [METHSUXIMIDE]	> 10 µM	> 10 µM	> 10 µM	> 10 µM	> 10 µM	> 30 µM	> 30 µM	> 30 µM
C[C@H]1C[C@@H]2[C@H]([C@@H](O)C[C@@]3(C)[C@H]2CC[C@]3(O)C(=O)CO)[C@@]2(C)C=CC(=O)C=C12 [METHYLPREDNISOLONE]	> 30 µM	> 30 µM	> 10 µM	> 10 µM	> 10 µM	> 30 µM	> 30 µM	> 30 µM
